Assay results: the NIST ThermoML archive (doi:10.1021/je060271a)

Settings: 303.15 K, Liquid, Vibrating tube method

CCCCCC(=O)OCC(COC(=O)CCCCC)(COC(=O)CCCCC)COC(=O)CCCCC [pentaerythritol tetrahexanoate]
Settings	mass density [kg/m3]
12760 kPa	996.5
12780 kPa	996.4
12799 kPa	996.4
12822 kPa	996.5
12861 kPa	996.4
12903 kPa	996.4
12922 kPa	996.5
12946 kPa	996.6
12965 kPa	996.4
12985 kPa	996.5
13005 kPa	996.5
13307 kPa	996.6
13327 kPa	996.7
13352 kPa	996.8
13373 kPa	996.7
13394 kPa	996.7
13419 kPa	996.7
13439 kPa	996.8
13465 kPa	996.9
13486 kPa	996.8
13507 kPa	996.8
13533 kPa	996.8
13554 kPa	996.8
13576 kPa	996.7
13598 kPa	996.9
13624 kPa	996.9
13645 kPa	996.9
13671 kPa	997
13693 kPa	996.8
13715 kPa	996.9
13737 kPa	997
13763 kPa	997
13786 kPa	997
13808 kPa	997
13835 kPa	996.9
13857 kPa	997.1
13880 kPa	997
13902 kPa	997
13929 kPa	997
13952 kPa	997.1
13975 kPa	997.1
14002 kPa	997.2
14025 kPa	997
14052 kPa	997.1
14098 kPa	997.1
14126 kPa	997.1
14149 kPa	997.1
14174 kPa	997.2
14198 kPa	997.1
14222 kPa	997.2
14250 kPa	997.2
14273 kPa	997.2
14301 kPa	997.2
14324 kPa	997.3
14348 kPa	997.3
14371 kPa	997.4
14400 kPa	997.4
14423 kPa	997.3
14447 kPa	997.4
14476 kPa	997.4
14499 kPa	997.4
14522 kPa	997.3
14545 kPa	997.5
14569 kPa	997.4
14596 kPa	997.5
14620 kPa	997.5
14643 kPa	997.6
14671 kPa	997.4
14695 kPa	997.4
14722 kPa	997.4
14746 kPa	997.6
14770 kPa	997.6
14798 kPa	997.6
14823 kPa	997.5
14847 kPa	997.5
14871 kPa	997.6
14900 kPa	997.6
15031 kPa	997.7
15056 kPa	997.7
15080 kPa	997.7
15110 kPa	997.8
15293 kPa	997.8
15647 kPa	998.1
15670 kPa	998.2
15694 kPa	998.1
15716 kPa	998
15743 kPa	998.1
15766 kPa	998.1
15789 kPa	998
15816 kPa	998.1
15838 kPa	998.2
15888 kPa	998.2
15911 kPa	998.2
15933 kPa	998.3
15961 kPa	998.4
15983 kPa	998.3
16011 kPa	998.3
16034 kPa	998.3
16056 kPa	998.4
16083 kPa	998.3
16106 kPa	998.4
16127 kPa	998.2
16149 kPa	998.4
16175 kPa	998.4
16197 kPa	998.3
16218 kPa	998.4
16244 kPa	998.5
16266 kPa	998.4
16288 kPa	998.4
16313 kPa	998.4
16335 kPa	998.5
16357 kPa	998.5
16384 kPa	998.5
16406 kPa	998.7
16427 kPa	998.5
16447 kPa	998.5
16471 kPa	998.6
16491 kPa	998.5
16512 kPa	998.6
16532 kPa	998.5
16557 kPa	998.7
16578 kPa	998.7
16599 kPa	998.5
16624 kPa	998.6
16644 kPa	998.7
16666 kPa	998.7
16687 kPa	998.7
16708 kPa	998.5
16732 kPa	998.7
16752 kPa	998.7
16772 kPa	998.7
16796 kPa	998.7
16840 kPa	998.8
16860 kPa	998.9
16880 kPa	998.8
16904 kPa	998.8
16924 kPa	998.8
16945 kPa	998.9
16966 kPa	998.9
16990 kPa	998.8
17010 kPa	998.9
17035 kPa	999
17056 kPa	999
17077 kPa	999
17098 kPa	999
